Results taken from US4668677A, “4-phenylphthalazine derivatives, their preparation and their use as pharmaceuticals” (Mitsubishi Chemical Industries Limited, priority 1984, dated 1987).
Structures can show the parent of a compound that is named as a salt.

Assays:
[1] = test system: blood platelets; experiment: Activity to inhibit the aggregation of blood platelets (collagen, ex vivo after oral administration); assay type: in vivo, rat (male Wistar-ST strain); settings: Rattus norvegicus, Platelet; 10 mg/Kg oral, 1 hour after administration; collagen 7 to 10 μg/ml; read-out: Inhibitory rate (blood platelet aggregation)
Description: Male Wistar-ST strain rats of an average body weight of 250 g were used, a group consisting of 8 animals. The test compound indicated in the following Table 1 was orally administered to rats in the form of a suspension in a 1% tragacanth aqueous solution at 4 ml/Kg (the test compound 10 mg/Kg).
One hour after the administration, blood samples were obtained from the carotid artery by means of a cannule. […] Tubes were turned upside-down and then subjected to centrifugation at 200×g over 15 minutes to assign the supernatant as a platelet-rich plasma (PRP). The residue was further centrifuged at […] over 15 minutes to assign the supernatant as a platelet-poor plasma (PPP). These supernatants were applied for determining the ability to aggregate blood platelets. […] As an aggregation inducing agent, collagen (availale from Hormon-chemie A.G.) was used at a concentration of 7 to 10 μg/ml.
Inhibitory rate to aggregate blood platelets was calculated according to the following equation: [formula] A: […] in the group to which the 1% tragacanth solution alone was given (Control)
B: Aggregation rate in the group to which the tragacanth solution of the test compound was given.

[2] = in vivo; settings: rat, po, rats
[3] = test system: mice; experiment: Anti-thrombotic activity: arachidonic acid-induced mortality in mice; assay type: in vivo, mouse (male ICR-JCL strain); settings: for Survival time of dead mice: arachidonic acid 100 mg/Kg i.v.; for Mortality: arachidonic acid 100 mg/Kg i.v. after 1 hour
Description: (§1) Male ICR-JCL strain mice with an average body weight of about 25 g and male New Zealand White rabbits with an average body weight of about 3 Kg were used.
Where mice were used as experimental animals, a suspension of the test compound indicated in Table 3 in a 1% tragacanth aqueous solution was orally administered to animals at 20 ml/Kg. One hour after the administration, an arachidonic acid (PL-biochemical Co., Inc.) solution dissolved in a 0.1M sodium carbonate aqueous solution was intravenously given at 100 mg/Kg. Evaluation of activity was effected with the time from the administration of arachidonic acid up to the death of animals as well as mortality.

[4] = test system: rabbits; experiment: Anti-thrombotic activity: arachidonic acid-induced mortality in rabbits; assay type: in vivo, rabbit (male New Zealand White); settings: of 4 rabbits
Description: as §1
Where rabbits were used as experimental animals, a suspension of the test compound in a 1% tragacanth aqueous solution was orally administered to animals at 5 ml/Kg. Two hours after the administration, an arachidonic acid solution dissolved in a 0.1M potassium carbonate solution was injected into pinna vein at 1.4 mg/Kg.
Evaluation of activity was effected with mortality at the time when arachidonic acid given. If survived at the first administration of arachidonic acid, arachidonic acid was administered after 6 hours, 24 hours, 48 hours and 72 hours from the administration of the test compound, respectively, and mortality was determined in respective cases.

[5] = test system: cerebral cortex; experiment: Activity to increase topical cerebral blood flow, cerebral cortex (heat clearance method); assay type: in vivo, rabbit (male New Zealand White); settings: change in blood flow expressed in terms of voltage
Description: (§2) The compound of this invention was dissolved in an aqueous solution containing 1% tartaric acid and 1% dimethylacetamide, while papaverine hydrochloride dissolved in 0.9% physiological saline. These test compounds were intravenously given through a residual polyethylene tube within femoral vein.
(§3) Physiol. Scand., 67, 1 (1966); "Kokyu to Junkan" (in Japanese), 15, 435 (1967); the Journal of the Pharmacological Society of Japan, 71, 709 (1975)]. Simultaneously, blood pressure in femoral artery was also determined. Preparation and administration of test compounds were carried out in the same manner as in the above item (6).

[6] = test system: candate nucleus; experiment: Activity to increase topical cerebral blood flow, candate nucleus (heat clearance method); assay type: in vivo, rabbit (male New Zealand White); settings: change in blood flow expressed in terms of voltage
Description: as §2, §3

[7] = test system: femoral artery; experiment: Action on blood flow volume in femoral artery; assay type: in vivo, rabbit (male New Zealand White)
Description: (§4) Male New Zealand White rabbits (body weight of 2.8 Kg to 3.5 Kg) were used and anesthetized with pentobarbital sodium. Blood flow volumes in the carotid artery and femoral artery were measured and recorded via a non-blood observing type of a probe for measuring blood flow volume. Also, blood pressure in femoral artery was simultaneously measured and recorded with measurement of blood flow.
as §2

[8] = test system: Thoracic aorta; experiment: Calcium antagonistic activity (relaxation of thoracic aorta); assay type: cell-based, rat (male Wistar strain); settings: Rattus norvegicus; final concentration 10 μM; 10 mM CaCl2
Description: Thoracic aorta was removed from male Wistar strain rats with a body weight of 350 g to 450 g and then spiral-shaped pieces of aorta were prepared therefrom. […] Thereafter, samples were further stabilized in Krebs-Henseleit solution containing no CaCl2 over 1 hour and then in a 80 mM KCl nutritive liquid wherein NaCl was exchanged with an equimolar KCl (depolarized liquid) over a further one hour. Then, samples were washed with the depolarized liquid and loaded with a static tension of 1.0 g. When CaCl2 was added to the nutritive liquid so as to reach a final concentration of 10 mM, tension was produced in samples and, after 15-20 minutes from the addition of CaCl2, the maximum tension was obtained. At this point, test compounds were applied and relaxing activity of test compounds was evaluated. Tension was determined in equal dimension.
Relaxation rate was calculated according to the following equation: [formula] A: Maximum tension generated B: Generated tension retained after administration of test compound
All test compounds were given in the form of a solution in dimethyl sulfoxide at a dose of 0.1 ml, whereupon a final concentration of dimethyl sulfoxide itself was adjusted to 0.5 V/V %.

[9] = test system: femoral artery; experiment: Action on blood pressure in femoral artery; assay type: in vivo, rabbit (male New Zealand White)
Description: as §4, §2

[10] = test system: carotid artery; experiment: Action on blood flow volume in carotid artery; assay type: in vivo, rabbit (male New Zealand White)
Description: as §4, §2

[11] = test system: femoral artery; experiment: Blood pressure in femoral artery, topical cerebral blood flow test; assay type: in vivo, rabbit (male New Zealand White)
Description: as §2, §3

CCC(C)Nc1nnc(-c2ccccc2)c2ccccc12 (stereo not shown) [compound 5]
inhibition at 10 mg/kg [1]: 0%

CC(C)(C)Nc1nnc(-c2ccccc2)c2ccccc12 [compound 6]
inhibition at 10 mg/kg [1]: 0%

CCCNc1nnc(-c2ccccc2)c2ccccc12 [compound 1]
inhibition at 10 mg/kg [1]: 27.6%

c1ccc(-c2nnc(NC3CCCCC3)c3ccccc23)cc1 [compound 18]
inhibition at 10 mg/kg [1]: 0%

CCCCCNc1nnc(-c2ccccc2)c2ccccc12 [compound 7]
inhibition at 10 mg/kg [1]: 6.2% | LD50 [2]: 1780 mg/kg

CCC(C)(C)Nc1nnc(-c2ccccc2)c2ccccc12 [compound 12]
inhibition at 10 mg/kg [1]: 0%

CCC(CC)CNc1nnc(-c2ccccc2)c2ccccc12 [compound 15]
inhibition at 10 mg/kg [1]: 14.6%

CC(C)CC(C)Nc1nnc(-c2ccccc2)c2ccccc12 (stereo not shown) [compound 16]
inhibition at 10 mg/kg [1]: 0%

CCCCCCCCNc1nnc(-c2ccccc2)c2ccccc12 [compound 20]
inhibition at 10 mg/kg [1]: 0%

CC(C)CNc1nnc(-c2ccccc2)c2ccccc12 [compound 4]
inhibition at 10 mg/kg [1]: 0%

CCCCNc1nnc(-c2ccccc2)c2ccccc12 [compound 3]
inhibition at 10 mg/kg [1]: 0%

Clc1ccccc1CN1CCc2sccc2C1 [Ticlopidine, ticlopidine, reference compound]
Survival time of dead mice ([3]; 300 mg/Kg oral): 81 ± 13 s | Mortality ([3]; 300 mg/Kg oral): 100% | Survival time of dead mice ([3]; 1000 mg/Kg oral): 128 ± 18 s | Mortality ([3]; 1000 mg/Kg oral): 100% | Mortality (number of rabbits) ([4]; 30 mg/Kg oral, 2 hrs. after administration): 4 | Mortality (number of rabbits) ([4]; 100 mg/Kg oral, 2 hrs. after administration): 3 | Mortality (number of rabbits) ([4]; 100 mg/Kg oral, 6 hrs. after administration): 1

CC(C)CCNc1nnc(-c2ccccc2)c2ccccc12 [compound 11]
inhibition at 10 mg/kg [1]: 24%

CC(C)Nc1nnc(-c2ccccc2)c2ccccc12 [compound 2]
inhibition at 10 mg/kg [1]: 7.1%

CC(C)(C)CCNc1nnc(-c2ccccc2)c2ccccc12 [compound 17]
inhibition at 10 mg/kg [1]: 17.3%

CCCCCCNc1nnc(-c2ccccc2)c2ccccc12 [compound 14]
inhibition at 10 mg/kg [1]: 15.6%

CCCC(C)Nc1nnc(-c2ccccc2)c2ccccc12 (stereo not shown) [compound 8]
inhibition at 10 mg/kg [1]: 0%

COc1ccc(Cc2nccc3cc(OC)c(OC)cc23)cc1OC [Papaverine hydrochloride, papaverine hydrochloride, reference compound]
Increase in topical blood flow volume, Cerebral cortex ([5]; 0.3 mg/Kg i.v.): 0.57 ± 0.11 Δ μV | Increase in topical blood flow volume, Cerebral cortex ([5]; 1 mg/Kg i.v.): 1.05 ± 0.21 Δ μV | Increase in topical blood flow volume, Candate nucleus ([6]; 0.3 mg/Kg i.v.): 0.19 ± 0.04 Δ μV | Increase in topical blood flow volume, Candate nucleus ([6]; 1 mg/Kg i.v.): 0.35 ± 0.07 Δ μV | Blood flow volume in femoral artery, A: Before administration ([7]; 0.5 mg/Kg i.v.): 16.8 mL/min | Blood flow volume in femoral artery, B: After administration ([7]; 0.5 mg/Kg i.v.): 23.0 mL/min | Blood flow volume in femoral artery, C: Increase degree ([7]; 0.5 mg/kg i.v.): 6.1 mL/min | Blood flow volume in femoral artery, D: Increase rate ([7]; 0.5 mg/kg i.v.): 40.3% | Blood flow volume in femoral artery, A: Before administration ([7]; 1.0 mg/Kg i.v.): 30.1 mL/min | Blood flow volume in femoral artery, B: After administration ([7]; 1.0 mg/Kg i.v.): 40.0 mL/min | Blood flow volume in femoral artery, C: Increase degree ([7]; 1.0 mg/kg i.v.): 9.8 mL/min | Blood flow volume in femoral artery, D: Increase rate ([7]; 1.0 mg/kg i.v.): 32.7% | inhibition at 10 µM [8]: 0% | Blood pressure in femoral artery, A: Before administration ([9]; 0.5 mg/kg i.v.): 94.8 mmHg | Blood pressure in femoral artery, B: After administration ([9]; 0.5 mg/kg i.v.): 82.4 mmHg | Blood pressure in femoral artery, E: Lowering degree ([9]; 0.5 mg/kg i.v.): 12.4 mmHg | Blood pressure in femoral artery, F: Lowering rate ([9]; 0.5 mg/kg i.v.): 13.2% | Blood pressure in femoral artery, A: Before administration ([9]; 1.0 mg/kg i.v.): 91.8 mmHg | Blood pressure in femoral artery, B: After administration ([9]; 1.0 mg/kg i.v.): 68.8 mmHg | Blood pressure in femoral artery, E: Lowering degree ([9]; 1.0 mg/kg i.v.): 23.1 mmHg | Blood pressure in femoral artery, F: Lowering rate ([9]; 1.0 mg/kg i.v.): 25.3% | Blood flow volume in carotid artery, A: Before administration ([10]; 0.5 mg/Kg i.v.): 18.6 mL/min | Blood flow volume in carotid artery, B: After administration ([10]; 0.5 mg/Kg i.v.): 38.7 mL/min | Blood flow volume in carotid artery, C: Increase degree ([10]; 0.5 mg/Kg i.v.): 20.1 mL/min | Blood flow volume in carotid artery, D: Increase rate ([10]; 0.5 mg/Kg i.v.): 108.3% | Blood flow volume in carotid artery, A: Before administration ([10]; 1.0 mg/Kg i.v.): 19.3 mL/min | Blood flow volume in carotid artery, B: After administration ([10]; 1.0 mg/Kg i.v.): 26.3 mL/min | Blood flow volume in carotid artery, C: Increase degree ([10]; 1.0 mg/Kg i.v.): 7.0 mL/min | Blood flow volume in carotid artery, D: Increase rate ([10]; 1.0 mg/Kg i.v.): 33.2% | Lowering of blood pressure in femoral artery ([11]; 0.3 mg/Kg i.v.): 15.0 ± 1.2% | Lowering of blood pressure in femoral artery ([11]; 1 mg/Kg i.v.): 20.8 ± 3.4%

CCCCCCCNc1nnc(-c2ccccc2)c2ccccc12 [compound 19]
inhibition at 10 mg/kg [1]: 0%

CCC(C)CNc1nnc(-c2ccccc2)c2ccccc12 (stereo not shown) [compound 9]
inhibition at 10 mg/kg [1]: 79.2% | LD50 [2]: 2180 mg/kg

c1ccc(-c2nnc(NC3CCCC3)c3ccccc23)cc1 [compound 13]
inhibition at 10 mg/kg [1]: 0%

CC(C)C(C)Nc1nnc(-c2ccccc2)c2ccccc12 (stereo not shown) [compound 10]
inhibition at 10 mg/kg [1]: 54.1% | LD50 [2]: 2530 mg/kg
